Data set [1] relates to Rattus norvegicus. As to the kind of experiment: Reduction in total distance travelled in Wistar rat at 5 mg/kg, ip measured for 10 mins by open field test relative to control. It is filed as functional, organism-based.
Data set [2] is described as follows: Toxicity in Wistar rat assessed as hyperlocomotion at 5 mg/kg, ip measured for 10 mins by open field test relative to control. The format is organism-based. To be noted: in vivo.
Data set [3] can be described thus: Ratio of drug level in brain to plasma in ICR mouse at 5 mg/kg, ip measured after 15 mins by HPLC-MS analysis. It is filed as ADME, organism-based. The following applies: brain and plasma, read-out: BBR.
In data set [4] the target is T1, Glutamate NMDA receptor; GRIN1/GRIN2A (Homo sapiens, UniProt Q05586+Q12879).
Description: Inhibition of human GluN1a/GluN2A receptor expressed in HEK293 cells assessed as relative inhibition of glycine/glutamate-induced current measured at +40 mV holding potential by whole-cell patch clamp method
Data set [5] can be described thus: Drug uptake in ICR mouse brain at 5 mg/kg, ip measured after 60 mins by HPLC-MS analysis. It is filed as ADME, organism-based. The following applies: read-out: Drug uptake.
Data set [6] concerns the target T2, Glutamate NMDA receptor; GRIN1/GRIN2B (Homo sapiens, UniProt Q05586+Q13224).
Description: Inhibition of human GluN1a/GluN2B receptor expressed in HEK293 cells assessed as inhibition of glycine/glutamate-induced current measured at -60 mV holding potential by whole-cell patch clamp method
The target of data set [7] is T1, Glutamate NMDA receptor; GRIN1/GRIN2A. As to the kind of experiment: Inhibition of human GluN1a/GluN2A receptor expressed in HEK293 cells assessed as relative inhibition of glycine/glutamate-induced current at 100 uM measured at +40 mV holding potential by whole-cell patch clamp method. It is filed as cell-based. (The patch-clamp technique gives a direct electrical read-out from membranes.)

In the next data set the target is Acetylcholinesterase (Homo sapiens, UniProt P22303).
Data set [8] concerns the target T1, Glutamate NMDA receptor; GRIN1/GRIN2A. The source holds these as a separate data set.
Description: Inhibition of human GluN1a/GluN2A receptor expressed in HEK293 cells assessed as inhibition of glycine/glutamate-induced current measured at -60 mV holding potential by whole-cell patch clamp method
The target in another data set is Cholinesterase (Homo sapiens, UniProt P06276).
The nature of data set [9]: Drug uptake in ICR mouse plasma at 5 mg/kg, ip measured after 15 mins by HPLC-MS analysis. It is filed as ADME, organism-based.
Data set [10] is described as follows: Toxicity in Wistar rat assessed as prepulse inhibition of acoustic startle response at 1 to 5 mg/kg, ip measured for 10 mins by open field test relative to control. It is filed as organism-based. The following applies: in vivo, dose 1-5 mg/kg.
Data set [11] has as its system Rattus norvegicus. As to the kind of experiment: Effect on spontaneous locomotory activity in Wistar rat at 1 mg/kg, ip measured for 10 mins by open field test. It is filed as functional, organism-based.
A short description of data set [12]: Drug uptake in ICR mouse brain at 5 mg/kg, ip measured after 15 mins by HPLC-MS analysis. The format is ADME, organism-based. To be noted: read-out: Drug uptake.
Data set [13] is described as follows: Drug uptake in ICR mouse plasma at 5 mg/kg, ip measured after 60 mins by HPLC-MS analysis. The format is ADME, organism-based.
Data set [14] has as its system Rattus norvegicus. As to the kind of experiment: Effect on spontaneous locomotory activity in Wistar rat at 5 mg/kg, ip measured for 10 mins by open field test. The format is functional, organism-based.
Data set [15] has as its target T2, Glutamate NMDA receptor; GRIN1/GRIN2B. The source holds these as a separate data set.
Description: Inhibition of human GluN1a/GluN2B receptor expressed in HEK293 cells assessed as relative inhibition of glycine/glutamate-induced current measured at +40 mV holding potential by whole-cell patch clamp method
Data set [16] can be described thus: Toxicity in Wistar rat assessed as prepulse inhibition of acoustic startle response at 0.3 mg/kg, ip measured for 10 mins by open field test relative to control. To be noted: in vivo. The format is organism-based.

Activity calls are given as the source filed them. No cut-off for these calls is given here.

Two compounds from ChEMBL document CHEMBL4814070 (Eur J Med Chem, 2021) can be followed below.

The IC50 is the point on the concentration scale where inhibition reaches its midpoint. A high value points to weaker potency. By inhibition is commonly meant the change of the read-out against control, counted positive when it falls.

T2 sequence (Q13224 whole entry, looked up, other chains not shown): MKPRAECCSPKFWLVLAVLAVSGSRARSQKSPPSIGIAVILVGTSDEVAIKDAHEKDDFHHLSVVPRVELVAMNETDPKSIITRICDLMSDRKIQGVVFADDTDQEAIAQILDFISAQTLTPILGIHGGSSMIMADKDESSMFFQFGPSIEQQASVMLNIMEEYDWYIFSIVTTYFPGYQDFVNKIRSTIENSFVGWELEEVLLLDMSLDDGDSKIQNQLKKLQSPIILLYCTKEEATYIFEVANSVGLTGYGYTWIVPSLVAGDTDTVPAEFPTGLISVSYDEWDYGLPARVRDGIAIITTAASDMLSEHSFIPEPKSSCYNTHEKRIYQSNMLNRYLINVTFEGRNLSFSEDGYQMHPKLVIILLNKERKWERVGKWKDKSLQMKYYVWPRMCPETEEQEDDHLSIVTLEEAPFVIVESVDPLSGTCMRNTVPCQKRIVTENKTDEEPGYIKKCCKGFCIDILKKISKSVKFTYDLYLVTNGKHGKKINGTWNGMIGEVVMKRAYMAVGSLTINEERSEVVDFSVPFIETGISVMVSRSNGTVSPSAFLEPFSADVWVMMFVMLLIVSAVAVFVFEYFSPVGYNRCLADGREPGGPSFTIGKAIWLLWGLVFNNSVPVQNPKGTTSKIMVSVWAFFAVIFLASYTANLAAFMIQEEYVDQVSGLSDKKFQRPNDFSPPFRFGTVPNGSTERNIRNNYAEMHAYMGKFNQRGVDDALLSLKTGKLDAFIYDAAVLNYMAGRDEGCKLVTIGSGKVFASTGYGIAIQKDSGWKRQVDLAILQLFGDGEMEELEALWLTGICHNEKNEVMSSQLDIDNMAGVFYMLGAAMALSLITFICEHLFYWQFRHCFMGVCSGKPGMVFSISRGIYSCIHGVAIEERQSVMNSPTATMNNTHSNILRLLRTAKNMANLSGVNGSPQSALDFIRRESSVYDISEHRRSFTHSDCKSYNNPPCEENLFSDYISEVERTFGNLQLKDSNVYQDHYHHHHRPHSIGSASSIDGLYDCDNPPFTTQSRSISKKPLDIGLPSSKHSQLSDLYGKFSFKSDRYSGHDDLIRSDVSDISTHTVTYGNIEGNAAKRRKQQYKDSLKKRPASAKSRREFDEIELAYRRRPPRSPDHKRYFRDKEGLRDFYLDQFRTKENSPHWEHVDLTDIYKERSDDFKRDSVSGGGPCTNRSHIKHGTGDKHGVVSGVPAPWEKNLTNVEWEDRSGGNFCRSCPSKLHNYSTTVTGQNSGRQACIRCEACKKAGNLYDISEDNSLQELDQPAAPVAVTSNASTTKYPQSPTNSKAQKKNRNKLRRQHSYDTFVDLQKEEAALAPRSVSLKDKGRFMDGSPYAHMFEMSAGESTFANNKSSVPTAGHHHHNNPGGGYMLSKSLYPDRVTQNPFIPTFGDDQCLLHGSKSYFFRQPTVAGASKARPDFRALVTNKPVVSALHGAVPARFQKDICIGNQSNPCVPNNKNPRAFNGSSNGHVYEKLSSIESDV
Acetylcholinesterase, sequence (P22303 whole entry): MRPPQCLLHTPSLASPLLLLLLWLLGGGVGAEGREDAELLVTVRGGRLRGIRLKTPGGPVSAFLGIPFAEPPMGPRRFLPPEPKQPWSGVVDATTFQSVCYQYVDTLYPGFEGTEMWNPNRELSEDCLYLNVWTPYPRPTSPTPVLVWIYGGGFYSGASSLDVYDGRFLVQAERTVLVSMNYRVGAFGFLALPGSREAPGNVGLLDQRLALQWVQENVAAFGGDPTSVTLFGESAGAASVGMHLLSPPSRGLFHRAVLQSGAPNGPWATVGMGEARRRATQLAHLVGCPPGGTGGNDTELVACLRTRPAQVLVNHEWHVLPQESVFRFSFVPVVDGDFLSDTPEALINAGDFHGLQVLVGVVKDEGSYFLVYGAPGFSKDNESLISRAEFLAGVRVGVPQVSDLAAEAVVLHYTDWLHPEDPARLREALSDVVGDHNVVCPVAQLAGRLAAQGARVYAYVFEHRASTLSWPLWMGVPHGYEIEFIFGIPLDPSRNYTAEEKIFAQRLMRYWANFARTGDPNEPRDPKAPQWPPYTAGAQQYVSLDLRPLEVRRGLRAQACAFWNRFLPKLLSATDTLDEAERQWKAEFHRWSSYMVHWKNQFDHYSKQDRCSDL
Cholinesterase, sequence (P06276 whole entry): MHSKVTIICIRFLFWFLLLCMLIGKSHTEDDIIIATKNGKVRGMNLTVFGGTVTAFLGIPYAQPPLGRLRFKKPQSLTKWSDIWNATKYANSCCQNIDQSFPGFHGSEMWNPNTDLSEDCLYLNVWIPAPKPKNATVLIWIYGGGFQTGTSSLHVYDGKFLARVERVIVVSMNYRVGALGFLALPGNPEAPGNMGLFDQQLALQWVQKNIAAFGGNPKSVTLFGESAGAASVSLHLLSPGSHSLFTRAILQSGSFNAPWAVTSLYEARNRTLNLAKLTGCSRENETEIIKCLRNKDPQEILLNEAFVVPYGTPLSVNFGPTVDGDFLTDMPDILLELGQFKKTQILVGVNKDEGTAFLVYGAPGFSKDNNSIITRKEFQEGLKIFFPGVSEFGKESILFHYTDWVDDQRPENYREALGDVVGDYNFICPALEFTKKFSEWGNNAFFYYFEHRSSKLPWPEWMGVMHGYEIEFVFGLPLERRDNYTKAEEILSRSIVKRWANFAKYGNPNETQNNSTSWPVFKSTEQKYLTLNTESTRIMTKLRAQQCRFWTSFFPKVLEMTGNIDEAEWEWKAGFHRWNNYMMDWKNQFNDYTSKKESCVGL
Description for Acetylcholinesterase: Inhibition of human recombinant AChE assessed as reduction in cholinesterase activity using acetylthiocholine iodide as substrate by Ellman's method

For `Cl.Nc1c2c(nc3cccc(Cl)c13)CCCCC2`, the outcome with Rattus norvegicus [1] was Active. Besides, the Activity entry in data set [2] is reported as “Toxic”; in data set [10], “Non-Toxic”. Besides, the Kp at 0.25 h in [3] worked out at 33. Further, the IC50 in data set [4] was 112 µM; in [6] it was 22.1 µM; against Acetylcholinesterase, 223 µM; in [8], 7.29 µM; at Cholinesterase, 0.311 µM; in data set [15], 146 µM. For the same compound, the concentration at 1 h was found to be 32 nM in data set [5] and 185 nM in [13]. For the same compound, the inhibition in [7] stood at 46.7%. The concentration at 0.25 h in [9] was 2290 nM; in data set [12], 762 nM. Further, the outcome with Rattus norvegicus [11] and with Rattus norvegicus [14] was inactive.
`C[C@]12N[C@H](Cc3ccccc31)c1ccccc12` [DIZOCILPINE]: in data set [16], the Activity entry was “Toxic”.
